# Measured values: PubChem BioAssay (NCI)
#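 Following 48 hours of exposure in 96-well plates, responses at five concentrations were used to interpolate endpoints linearly. At the GI50, growth is halved. TGI denotes the concentration required for complete inhibition of growth.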
# Experiments:
# Test in all cases: NCI tumour cell line growth inhibition, 48 h
# IGROV1 ovarian = tested on: IGROV1 ovarian
# K-562 leukemia = tested on: K-562 leukemia
# MALME-3M melanoma = tested on: MALME-3M melanoma
# SW-620 colon = tested on: SW-620 colon
# NCI-H522 lung = tested on: NCI-H522 lung
# SK-MEL-2 melanoma = tested on: SK-MEL-2 melanoma
# OVCAR-3 ovarian = tested on: OVCAR-3 ovarian
# A549 NSCLC = tested on: A549 NSCLC
# CAKI-1 renal = tested on: CAKI-1 renal
# KM12 colon = tested on: KM12 colon
# HL-60(TB) leukemia = tested on: HL-60(TB) leukemia
# SF-268 CNS = tested on: SF-268 CNS
# HCC-2998 colon = tested on: HCC-2998 colon
# RPMI-8226 leukemia = tested on: RPMI-8226 leukemia
# MDA-MB-231 breast = tested on: MDA-MB-231 breast
# LOX IMVI melanoma = tested on: LOX IMVI melanoma
# TK-10 renal = tested on: TK-10 renal
# NCI-H23 lung = tested on: NCI-H23 lung
# EKVX NSCLC = tested on: EKVX NSCLC
# UACC-62 melanoma = tested on: UACC-62 melanoma
# HCT-15 colon = tested on: HCT-15 colon
# DU-145 prostate = tested on: DU-145 prostate
# SK-OV-3 ovarian = tested on: SK-OV-3 ovarian
# HT29 colon = tested on: HT29 colon
# T-47D breast = tested on: T-47D breast
# CCRF-CEM leukemia = tested on: CCRF-CEM leukemia
# SN12C renal = tested on: SN12C renal
# 786-0 renal = tested on: 786-0 renal
# MDA-MB-435 = tested on: MDA-MB-435
# RXF 393 renal = tested on: RXF 393 renal
# OVCAR-4 ovarian = tested on: OVCAR-4 ovarian
# SR leukemia = tested on: SR leukemia
# OVCAR-5 ovarian = tested on: OVCAR-5 ovarian
# HOP-62 NSCLC = tested on: HOP-62 NSCLC
# A498 renal = tested on: A498 renal
# SF-295 CNS = tested on: SF-295 CNS
# M14 melanoma = tested on: M14 melanoma
# PC-3 prostate = tested on: PC-3 prostate
# MCF7 breast = tested on: MCF7 breast
# MOLT-4 leukemia = tested on: MOLT-4 leukemia
# OVCAR-8 ovarian = tested on: OVCAR-8 ovarian
# SK-MEL-28 melanoma = tested on: SK-MEL-28 melanoma
# ACHN renal = tested on: ACHN renal
# SNB-19 CNS = tested on: SNB-19 CNS
# COLO 205 colon = tested on: COLO 205 colon
# SF-539 CNS = tested on: SF-539 CNS
# U251 CNS = tested on: U251 CNS
# UO-31 renal = tested on: UO-31 renal
# NCI-H460 lung = tested on: NCI-H460 lung
# UACC-257 melanoma = tested on: UACC-257 melanoma
# NCI-H226 lung = tested on: NCI-H226 lung
# NCI/ADR-RES ovarian = tested on: NCI/ADR-RES ovarian
# SK-MEL-5 melanoma = tested on: SK-MEL-5 melanoma
# HOP-92 NSCLC = tested on: HOP-92 NSCLC
# SNB-75 CNS = tested on: SNB-75 CNS
# HCT-116 colon = tested on: HCT-116 colon
smiles,measurement,setting,value
COc1ccc(C2=CC(c3cc(OC)c(OC)c(OC)c3)NC(=O)N2)cc1OC (configuration not stated),GI50,IGROV1 ovarian,3.8 µM
same,TGI,IGROV1 ovarian,20.4 µM
same,GI50,K-562 leukemia,1.96 µM
same,TGI,K-562 leukemia,24.5 µM
same,GI50,MALME-3M melanoma,5.06 µM
same,TGI,MALME-3M melanoma,21.1 µM
same,GI50,SW-620 colon,2.96 µM
same,TGI,SW-620 colon,10.2 µM
same,GI50,NCI-H522 lung,2.78 µM
same,TGI,NCI-H522 lung,11.2 µM
same,GI50,SK-MEL-2 melanoma,4.96 µM
same,TGI,SK-MEL-2 melanoma,24.3 µM
same,GI50,OVCAR-3 ovarian,2.13 µM
same,TGI,OVCAR-3 ovarian,5.05 µM
same,GI50,A549 NSCLC,4.74 µM
same,TGI,A549 NSCLC,> 100 µM
same,GI50,CAKI-1 renal,2.26 µM
same,TGI,CAKI-1 renal,9.32 µM
same,GI50,KM12 colon,2.25 µM
same,TGI,KM12 colon,6.12 µM
same,GI50,HL-60(TB) leukemia,1.57 µM
same,TGI,HL-60(TB) leukemia,6.52 µM
same,GI50,SF-268 CNS,3.46 µM
same,TGI,SF-268 CNS,14.5 µM
same,GI50,HCC-2998 colon,3.77 µM
same,TGI,HCC-2998 colon,12.6 µM
same,GI50,RPMI-8226 leukemia,3.03 µM
same,TGI,RPMI-8226 leukemia,19.3 µM
same,GI50,MDA-MB-231 breast,2.84 µM
same,TGI,MDA-MB-231 breast,8.04 µM
same,GI50,LOX IMVI melanoma,3.05 µM
same,TGI,LOX IMVI melanoma,11.7 µM
same,GI50,TK-10 renal,4.48 µM
same,TGI,TK-10 renal,41.2 µM
same,GI50,NCI-H23 lung,3.48 µM
same,TGI,NCI-H23 lung,17.5 µM
same,GI50,EKVX NSCLC,2.85 µM
same,TGI,EKVX NSCLC,23.2 µM
same,GI50,UACC-62 melanoma,4.31 µM
same,TGI,UACC-62 melanoma,16.8 µM
same,GI50,HCT-15 colon,2.9 µM
same,TGI,HCT-15 colon,17.7 µM
same,GI50,DU-145 prostate,1.9 µM
same,TGI,DU-145 prostate,4.45 µM
same,GI50,SK-OV-3 ovarian,3.67 µM
same,TGI,SK-OV-3 ovarian,> 100 µM
same,GI50,HT29 colon,4.05 µM
same,TGI,HT29 colon,15.1 µM
same,GI50,T-47D breast,2.63 µM
same,TGI,T-47D breast,28.9 µM
same,GI50,CCRF-CEM leukemia,2.65 µM
same,TGI,CCRF-CEM leukemia,11 µM
same,GI50,SN12C renal,2.42 µM
same,TGI,SN12C renal,8.33 µM
same,GI50,786-0 renal,4.65 µM
same,TGI,786-0 renal,15.6 µM
same,GI50,MDA-MB-435,3.1 µM
same,TGI,MDA-MB-435,16.9 µM
same,GI50,RXF 393 renal,3.04 µM
same,TGI,RXF 393 renal,12.7 µM
same,GI50,OVCAR-4 ovarian,3.61 µM
same,TGI,OVCAR-4 ovarian,> 100 µM
same,GI50,SR leukemia,2.11 µM
same,TGI,SR leukemia,10.4 µM
same,GI50,OVCAR-5 ovarian,2.28 µM
same,TGI,OVCAR-5 ovarian,6.42 µM
same,GI50,HOP-62 NSCLC,3.99 µM
same,TGI,HOP-62 NSCLC,19.8 µM
same,GI50,A498 renal,1.83 µM
same,TGI,A498 renal,8.32 µM
same,GI50,SF-295 CNS,2.34 µM
same,TGI,SF-295 CNS,7.87 µM
same,GI50,M14 melanoma,3.59 µM
same,TGI,M14 melanoma,11.5 µM
same,GI50,PC-3 prostate,10.2 µM
same,TGI,PC-3 prostate,> 100 µM
same,GI50,MCF7 breast,4.26 µM
same,TGI,MCF7 breast,14.8 µM
same,GI50,MOLT-4 leukemia,2.41 µM
same,TGI,MOLT-4 leukemia,12.5 µM
same,GI50,OVCAR-8 ovarian,4.25 µM
same,TGI,OVCAR-8 ovarian,> 100 µM
same,GI50,SK-MEL-28 melanoma,6.97 µM
same,TGI,SK-MEL-28 melanoma,20.5 µM
same,GI50,ACHN renal,3.5 µM
same,TGI,ACHN renal,43.6 µM
same,GI50,SNB-19 CNS,4.73 µM
same,TGI,SNB-19 CNS,17 µM
same,GI50,COLO 205 colon,2.65 µM
same,TGI,COLO 205 colon,6.69 µM
same,GI50,SF-539 CNS,2.28 µM
same,TGI,SF-539 CNS,5.94 µM
same,GI50,U251 CNS,3.82 µM
same,TGI,U251 CNS,14.1 µM
same,GI50,UO-31 renal,2.54 µM
same,TGI,UO-31 renal,12.8 µM
same,GI50,NCI-H460 lung,1.92 µM
same,TGI,NCI-H460 lung,5 µM
same,GI50,UACC-257 melanoma,10.8 µM
same,TGI,UACC-257 melanoma,23.2 µM
same,GI50,NCI-H226 lung,8.4 µM
same,TGI,NCI-H226 lung,> 100 µM
same,GI50,NCI/ADR-RES ovarian,3.02 µM
same,TGI,NCI/ADR-RES ovarian,> 100 µM
same,GI50,SK-MEL-5 melanoma,4.41 µM
same,TGI,SK-MEL-5 melanoma,16.5 µM
same,GI50,HOP-92 NSCLC,12.5 µM
same,TGI,HOP-92 NSCLC,> 100 µM
same,GI50,SNB-75 CNS,2.42 µM
same,TGI,SNB-75 CNS,7.95 µM
same,GI50,HCT-116 colon,3.17 µM
same,TGI,HCT-116 colon,11.1 µM
